In patent US6649635B2, “Heteroarylcarboxamide compounds active against protein tyrosine kinase related disorders” (Sugen, Inc., priority 1997, dated 2003):
Where two headings read alike, the source gives them in different places.

Columns and labels:
[1] = target: T1, human EGF receptor (Homo sapiens, UniProt P00533); test: EGF-induced DNA synthesis (BrdU incorporation) in 3T3/EGFRc7 cells; assay type: cell-based; conditions: read-out: EGF-induced (inhibition of DNA synthesis)
T1 construct: expressed in transfected cells; host or cells: NIH3T3 clone C7 (3T3/EGFRc7)
Method: (§1) The following example illustrates the ability of the compounds of the invention to inhibit FGFR-stimulated and PDGFR-stimulated DNA synthesis in cells. DNA synthesis is required for many of the activities of FGFP and PDGFR including, but not limited to, cell proliferation. Uridine is added in one set of samples to overcome any contribution made by inhibition of DHOD and just evaluate the inhibition of PDGFR or FGFR signaling. (See Greene, et al., Biochem. Pharmacol., 50(6):861 (1995), Nair, et al., Immunology Letters, 47:171 (1995)).
(§2) (1) EGF: mouse EGF, 201; Toyobo,Co., Ltd. Japan; PDGF, Boehringer Mannheim, Germany; FGF, Gibco.
(§3) (2) BrdU Labeling Reagent: 10 mM, in PBS (pH7.4) Cat. No. 1 647 229, Boehringer Mannheim, Germany.
(§4) (3) FixDenat: fixation solution (ready to use), Cat. No. 1 647 229, Boehringer Mannheim, Germany.
(§5) (4) Anti-BrdU-POD: mouse monoclonal antibody conjugated with peroxidase, Cat. No. 1 647 229, Boehringer Mannheim, Germany.
(§6) (5) TMB Substrate Solution: tetramethylbenzidine (TMB), ready to use, Cat. No. 1 647 229, Boehringer Mannheim, Germany.
(§7) (6) PBS Washing Solution: 1×phosphate buffered saline, pH 7.4
(§8) (7) Albumin, Bovine (BSA): fraction V powder; A-8551, Sigma Chemical Co., USA.
(§9) (8) NIH3T3 clone C7 (3T3/EGFRc7)(Honegger et al., Cell 51:199-209, 1987)) engineered to over-express human EGF receptor.
(§10) These cells natively express FGFR and PDGFR.
(§11) (1) 3T3/EGFRc7 cells were seeded at 8000 cells/well in DMEM, 10% CS, 2 mM Gln in a 96 well plate. Cells are incubated overnight at 37 degrees C. in 5% CO2.
(§12) (2) After 24 hours, the cells were washed with PBS, and then serum starved in serum free medium (0%CS DMEM with 0.1% BSA) for 24 hours.
(§13) (3) On day 3, ligand (2n EGF or 1.5 nM FGF or 3.8 nM PDGF) prepared in DMEM with 0.1% BSA and 30 μM (final concentration) uridine) and test compound was added to the cells simultaneously. […]
(§14) (10) The absorbance of the samples was measured at 410 nm (in “dual wavelength” mode with a filter reading at 490 nm, as a reference wavelength) on a Dynatech ELISA plate reader.

[2] = system: PDGFR; test: PDGF-induced DNA synthesis (BrdU incorporation) in 3T3/EGFRc7 cells; assay type: cell-based; conditions: 3.8 nM PDGF, read-out: PDGF-induced (inhibition of DNA synthesis)
Method: as §1, §2, §3, §4, §5, §6, §7, §8, §9, §10, §11, §12, §13, §14

[3] = system: FGFR; test: FGF-induced DNA synthesis (BrdU incorporation) in 3T3/EGFRc7 cells; assay type: cell-based
Method: as §1, §2, §3, §4, §5, §6, §7, §8, §9, §10, §11, §12
(3) On day 3, ligand (2n EGF or 1.5 nM FGF or 3.8 nM PDGF) prepared in DMEM with 0.1% BSA and 30 μM (final concentration) uridine) and test compound was added to the cells simultaneously.
The negative control wells received serum free DMEM with 0.1% BSA only; the positive control cells received ligand but no test compound. Test compound was prepared in serum free DMEM with ligand in a 96 well plate, and serially diluted for 7 test concentrations.
(4) After 20 hours of ligand activation, diluted BrdU labeling reagent (1:100 in DMEM, 0.1% BSA) was added and the cells were incubated with BrdU (final concentration=10 μM) for 1.5 hours.
(5) After incubation with labeling reagent, the medium was removed by decanting and tapping the inverted plate on a paper towel. FixDenat solution was added (50 μl/well) and the plates incubated at room temperature for 45 minutes on a plate shaker.
(6) The FixDenat solution was thoroughly removed by decanting and tapping the inverted plate on a paper towel. Milk is added (5% dehydrated milk in PBS, 200 μl/well) as a blocking solution and the plate was incubated for 30 minutes at room temperature on a plate shaker.
(7) The blocking solution was removed by decanting and the wells were washed once with PBS. Anti-BrdU-POD solution (1:100 dilution in PBS, 1% BSA) was added (100 μl/well) and the plate was incubated for 90 minutes at room temperature on a plate shaker.
(8) The antibody conjugate was thoroughly removed by decanting and rinsing the wells 5 times with PBS, and the plate dried by inverting and tapping on a paper towel.
(9) TMB substrate solution was added (100 μl/well) and incubated for 20 minutes at room temperature on a plate shaker until color development was sufficient for photometric detection.
as §14

[4] = system: C6 cells (glioblastoma); test: Subcutaneous xenograft experiment, inhibition of tumor growth in vivo; conditions: for inhibition (% of control): 30 mg/kg/day IP in DMSO, tumor volume
Method: Female athymic mice (BALB/c, nu/nu) were obtained from Simonsen Laboratories (Gilroy, Calif.). All animals were maintained under clean-room conditions in Micro-isolator cages with Alpha-dri bedding. They received sterile rodent chow and water ad libitum.
Cell lines were grown in Ham's F10 plus 5% fetal bovine serum (FBS) and 2 mM glutamine (GLN). All cell culture media, glutamine, and fetal bovine serum were purchased from Gibco Life Technologies (Grand Island, N.Y.) unless otherwise specified. All cells were grown in a humid atmosphere of 90-95% air and 5-10% CO2 at 37° C. All cell lines were routinely subcultured twice a week and were negative for mycoplasma as determined by the Mycotect method (Gibco).
Cells were harvested at or near confluency with 0.05% Trypsin-EDTA and pelleted at 450×g for 10 min. Pellets were resuspended in sterile PBS or media (without FBS) and the cells were implanted into the hindflank of the mice (8-10 mice per group 3×10^6 cells/animal). Tumor growth was measured over 3 weeks using venier calipers. Tumor volumes were calculated as a product of length×width×height unless otherwise indicated. P values were calculated using the Students' t-test. Cmpd. 1 in 50 μL excipient (DMSO) was delivered by IP bolus injection daily.

[5] = 1.5 nM FGF, Table 2 experiment, read-out: FGF-induced (inhibition of DNA synthesis)
[6] = FGF induced DNA synthesis, with added uridine (30 μM), read-out: IC50 + uridine
[7] = FGF induced DNA synthesis, without added uridine, read-out: IC50 − uridine

T1 sequence (P00533 25-1210): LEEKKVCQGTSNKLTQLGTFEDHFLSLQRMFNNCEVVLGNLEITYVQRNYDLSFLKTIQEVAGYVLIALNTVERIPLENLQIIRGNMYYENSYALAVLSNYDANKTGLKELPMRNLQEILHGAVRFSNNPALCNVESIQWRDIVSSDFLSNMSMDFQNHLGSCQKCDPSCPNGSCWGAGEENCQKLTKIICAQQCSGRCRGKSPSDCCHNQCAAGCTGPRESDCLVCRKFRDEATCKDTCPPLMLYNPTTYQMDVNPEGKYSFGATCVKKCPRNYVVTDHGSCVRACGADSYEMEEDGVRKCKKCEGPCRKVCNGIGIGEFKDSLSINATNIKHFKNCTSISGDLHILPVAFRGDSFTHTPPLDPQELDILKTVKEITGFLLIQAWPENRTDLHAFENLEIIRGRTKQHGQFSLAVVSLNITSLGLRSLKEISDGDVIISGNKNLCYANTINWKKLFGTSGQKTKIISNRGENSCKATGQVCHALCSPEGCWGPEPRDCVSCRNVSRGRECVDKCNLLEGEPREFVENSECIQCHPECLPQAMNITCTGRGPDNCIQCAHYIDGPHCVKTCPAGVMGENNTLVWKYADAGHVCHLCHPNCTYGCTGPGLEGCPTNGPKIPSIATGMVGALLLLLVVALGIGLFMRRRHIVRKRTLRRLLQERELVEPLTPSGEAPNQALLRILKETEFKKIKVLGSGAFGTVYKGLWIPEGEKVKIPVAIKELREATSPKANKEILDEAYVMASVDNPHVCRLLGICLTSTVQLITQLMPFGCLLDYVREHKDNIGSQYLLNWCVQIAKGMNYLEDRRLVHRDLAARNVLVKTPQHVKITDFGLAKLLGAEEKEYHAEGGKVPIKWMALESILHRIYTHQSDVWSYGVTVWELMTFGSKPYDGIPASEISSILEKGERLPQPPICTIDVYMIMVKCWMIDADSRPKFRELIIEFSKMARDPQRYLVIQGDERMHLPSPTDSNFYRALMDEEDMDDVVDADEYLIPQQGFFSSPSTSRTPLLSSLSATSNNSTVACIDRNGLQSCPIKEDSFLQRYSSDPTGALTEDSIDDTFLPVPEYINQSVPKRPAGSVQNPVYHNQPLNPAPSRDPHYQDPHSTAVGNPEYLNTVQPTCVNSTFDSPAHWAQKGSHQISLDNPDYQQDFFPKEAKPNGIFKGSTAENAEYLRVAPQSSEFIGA

Row | Structure (SMILES) | IC50 [1] | IC50 [2] | IC50 [3, 5] | IC50 [3, 6] | IC50 [3, 7] | also measured
1 | C/C(O)=C(\C#N)C(=O)Nc1ccc(C(F)(F)F)cc1 [A771726] | – | – | – | > 100 µM | 20 µM | –
2 | Cc1oncc1C(=O)Nc1ccc(C(F)(F)F)cc1 [leflunomide, 4-(-(4′-trifluoromethylphenyl)carboxamido)-5-methyl-isoxazole] | – | – | – | 80 µM | 20 µM | –
3 | Cc1nocc1C(=O)Nc1ccc(C(F)(F)F)cc1 [cmpd. 1, 3-Methyl-4-[4-(trifluoromethyl)phenyl-aminocarbonyl]isoxazole] | > 100 µM | 90 µM | 65 µM | 70 µM | 85 µM | toxic effect at the dose tested ([4]; 30 mg/kg/day IP, xenograft mice): no toxic effect; mortality ([4]; Day 8, 30 mg/kg/day IP): 0; inhibition (% of control) ([4]; Day 8): 34 % of control; mortality ([4]; Day 10, 30 mg/kg/day IP): 0; inhibition (% of control) ([4]; Day 10): 42 % of control; mortality ([4]; Day 13, 30 mg/kg/day IP): 0; inhibition (% of control) ([4]; Day 13): 48 % of control; mortality ([4]; Day 15, 30 mg/kg/day IP): 0; inhibition (% of control) ([4]; Day 15): 47 % of control; mortality ([4]; Day 17, 30 mg/kg/day IP): 0; inhibition (% of control) ([4]; Day 17): 50 % of control; mortality ([4]; Day 20, 30 mg/kg/day IP): 0; inhibition (% of control) ([4]; Day 20): 52 % of control

More lines, main results first:

Row | IC50 [1] | IC50 [2] | IC50 [3, 5] | IC50 [3, 6] | IC50 [3, 7] | Structure (SMILES) | also measured
4 | > 100 µM | 95 µM | > 100 µM | – | – | Cc1n[nH]cc1C(=O)Nc1ccc(C(F)(F)F)cc1 [cmpd. 2, 3-Methyl-4-[4-(trifluoromethyl)phenylaminocarbonyl]pyrazole] | –
5 | – | – | – | > 100 µM | 1.6 µM | Cc1c(-c2ccc(-c3ccccc3F)cc2)nc2ccc(F)cc2c1C(=O)O [brequinar] | –
6 | > 100 µM | > 100 µM | > 100 µM | – | – | Cc1noc(C)c1C(=O)Nc1ccc(C(F)(F)F)cc1 [cmpd. 21, 3,5-Dimethyl-4-[4-(trifluoromethyl)phenylaminocarbonyl]isoxazole] | –
